Laboratory results reported in PMC9667932, “Isobactins: O-acyl isopeptide prodrugs of teixobactin and teixobactin derivatives” (Chemical Science, 2022).
In brackets after ≈: the same amount, converted by molar mass. Read-outs that look alike come from different tables or passages of the source. Marks after values point to notes of the source that are not given here.

What was measured:
[1] = tested on: four Gram-positive bacteria; settings: Table 2
Description: (§1) We used methicillin-susceptible and methicillin-resistant S. aureus as representative pathogens and B. subtilis and S. epidermidis as additional Gram-positive bacteria, and we used E. coli as a Gram-negative control.

human red blood cells = assay: Hemolytic assay; assay type: cell-based
Description: We evaluated the hemolytic activity of the O-acyl isopeptide prodrugs and the corresponding teixobactin analogues with human red blood cells (Fig. S14–S21 ^†). We used Triton X-100 and melittin as positive controls and vancomycin and water (vehicle) as negative controls in the hemolysis assays.[9,25,26] […] In contrast, 0.002% polysorbate 80 had no effect on the hemolytic activity of Lys10–teixobactin and Leu10–teixobactin and little effect on the corresponding O-acyl isopeptide prodrug analogues. When we performed hemolysis assays with teixobactin, we observed no hemolysis up to 100 μg mL^−1 without polysorbate 80 and modest hemolysis (4%) at 100 μg mL^−1 with 0.002% polysorbate 80. We observed no hemolysis with vancomycin at concentrations up to 100 μg mL^−1, and we observed 26–30% hemolysis with 1.25 μg mL^−1 melittin with and without 0.002% polysorbate 80.

[2] = tested on: Staphylococcus aureus (MSSA) ATCC 29213; assay: microbe, parasite or virus in culture; settings: ATCC29213|MSSA
Description: as §1

[3] = tested on: Staphylococcus aureus (MRSA) ATCC 700698; assay: microbe, parasite or virus in culture
Description: as §1

[4] = tested on: Escherichia coli ATCC 10798; assay: microbe, parasite or virus in culture
Description: as §1

[5] = tested on: Staphylococcus epidermidis ATCC 14990; assay: microbe, parasite or virus in culture
Description: as §1

[6] = tested on: Bacillus subtilis ATCC 6051; assay: microbe, parasite or virus in culture
Description: as §1

[7] = in the presence of 0.002% polysorbate 80

CC[C@H](C)[C@H](NC(=O)[C@@H](Cc1ccccc1)NC)C(=O)N[C@@H](CO)C(=O)N[C@H](CCC(N)=O)C(=O)N[C@@H](C(=O)N[C@H](C(=O)N[C@@H](CO)C(=O)N[C@H]1C(=O)N[C@@H](C)C(=O)N[C@@H](CCCCN)C(=O)N[C@@H]([C@@H](C)CC)C(=O)O[C@H]1C)[C@@H](C)CC)[C@@H](C)CC [Lys10–teixobactin] was tested. Which “MICs (range over the Gram-positive bacteria)” value [1, 7] did it give?
The value was 0.25 to 2 µg/mL.

What about the “MICs (range over the Gram-positive bacteria)” value ([1]; without polysorbate 80) of the same compound?
The value was 2 to 4 µg/mL.

What about the “Effect of 0.002% polysorbate 80 on the hemolytic activity” value (human red blood cells) of the same compound?
Its value is “no effect”.

Which “MICs (range over the Gram-positive bacteria)” value [1, 7] does the source give for CN[C@H](CC(C)C)C(=O)N[C@H]1C(=O)N[C@@H](CC(N)=O)C(=O)N[C@H]2C(=O)N[C@H]3C(=O)N[C@H](C(=O)N[C@H](C(=O)O)c4cc(O)cc(O)c4-c4cc3ccc4O)[C@H](O)c3ccc(c(Cl)c3)Oc3cc2cc(c3O[C@@H]2O[C@H](CO)[C@@H](O)[C@H](O)[C@H]2O[C@H]2C[C@](C)(N)[C@H](O)[C@H](C)O2)Oc2ccc(cc2Cl)[C@H]1O [Vancomycin, vancomycin, reference compound] here?
The value was 0.125 to 2 µg/mL.

And the MIC ([2]; read-out: MIC Staphylococcus aureus (MSSA) ATCC 29213, culture media containing 0% polysorbate 80)?
Its MIC is 0.5 µg/mL (≈ 0.345 µM).

And the MIC ([2]; read-out: MIC Staphylococcus aureus (MSSA) ATCC 29213, culture media containing 0.002% polysorbate 80)?
Its MIC is 1 µg/mL (≈ 0.69 µM).

And the MIC ([3]; Staphylococcus aureus, ATCC700698|MRSA, read-out: MIC Staphylococcus aureus (MRSA) ATCC 700698)?
Its MIC is 2 µg/mL (≈ 1.38 µM).

And the “MIC Staphylococcus aureus (MRSA) ATCC 700698” value ([3]; culture media containing 0.002% polysorbate 80)?
Its value is 2 ^b μg mL^−1.

What about the MIC ([4]; ATCC10798, read-out: MIC Escherichia coli ATCC 10798, culture media containing 0% polysorbate 80) of the same compound?
The MIC was greater than 32 µg/mL.

And the MIC ([4]; ATCC10798, read-out: MIC Escherichia coli ATCC 10798, culture media containing 0.002% polysorbate 80)?
The MIC was greater than 8 µg/mL.

And the MIC ([5]; ATCC14990, read-out: MIC Staphylococcus epidermidis ATCC 14990, culture media containing 0% polysorbate 80)?
Its MIC is 1 µg/mL (≈ 0.69 µM).

And the MIC ([5]; ATCC14990, read-out: MIC Staphylococcus epidermidis ATCC 14990, culture media containing 0.002% polysorbate 80)?
Its MIC is 2 µg/mL (≈ 1.38 µM).

And the MIC ([6]; ATCC6051, read-out: MIC Bacillus subtilis ATCC 6051, culture media containing 0% polysorbate 80)?
Its MIC is 0.125 to 0.25 µg/mL (≈ 0.0863 to 0.173 µM).

What about the MIC ([6]; ATCC6051, read-out: MIC Bacillus subtilis ATCC 6051, culture media containing 0.002% polysorbate 80) of the same compound?
Its MIC is 0.5 µg/mL (≈ 0.345 µM).

What about the “Hemolysis at concentrations up to 100 μg mL^−1” value (human red blood cells; negative control) of the same compound?
The value was “no hemolysis”.

Which “Hemolysis at 1.25 μg mL^−1” value (human red blood cells; with and without 0.002% polysorbate 80, positive control) does the source give for melittin [reference compound] here?
Its value is 26–30%.

Which results are given for CC[C@H](C)[C@H](NC(=O)[C@@H](Cc1ccccc1)NC)C(=O)N[C@@H](CO)C(=O)N[C@H](CCC(N)=O)C(=O)N[C@@H](C(=O)N[C@H](C(=O)N[C@@H](CO)C(=O)N[C@H]1C(=O)N[C@@H](C)C(=O)N[C@@H](CC(C)C)C(=O)N[C@@H]([C@@H](C)CC)C(=O)O[C@H]1C)[C@@H](C)CC)[C@@H](C)CC [Leu10–teixobactin]?
MIC Staphylococcus aureus (MRSA) ATCC 700698 ([3]; ATCC 700698): 2 ^a μg mL^−1; Effect of 0.002% polysorbate 80 on the hemolytic activity (human red blood cells): no effect
